Entries after “also recorded” stand apart in the source; their conditions may differ.
Experiments:
hDMT1 = target: T1, hDMT1 (Homo sapiens, UniProt P49281); assay: two-electrode voltage-clamp electrophysiology of Fe2+ evoked currents in hDMT1-injected Xenopus oocytes; type: cell-based; settings: Fe2+ 20 μM
T1 sequence (P49281 1-568): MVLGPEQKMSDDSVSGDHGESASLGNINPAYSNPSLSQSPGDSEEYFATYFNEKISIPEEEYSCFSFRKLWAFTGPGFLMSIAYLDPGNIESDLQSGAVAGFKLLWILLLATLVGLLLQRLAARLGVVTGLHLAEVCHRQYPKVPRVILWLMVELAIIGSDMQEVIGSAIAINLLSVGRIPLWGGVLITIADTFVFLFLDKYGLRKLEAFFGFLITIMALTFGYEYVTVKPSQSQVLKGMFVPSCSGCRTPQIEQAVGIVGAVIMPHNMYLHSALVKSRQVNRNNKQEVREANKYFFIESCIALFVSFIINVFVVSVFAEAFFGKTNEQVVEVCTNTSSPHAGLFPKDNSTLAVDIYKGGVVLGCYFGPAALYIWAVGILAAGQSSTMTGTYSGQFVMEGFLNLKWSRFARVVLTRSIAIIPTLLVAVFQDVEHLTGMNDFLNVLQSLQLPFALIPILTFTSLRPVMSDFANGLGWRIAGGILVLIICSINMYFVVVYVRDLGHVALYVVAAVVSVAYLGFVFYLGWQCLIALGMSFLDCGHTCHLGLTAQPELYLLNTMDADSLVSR
Method: Fig. 3 Characterization of Fe^2+ transport inhibition by 1 and 13 in X. laevis oocytes (collected from frogs under license number BE60/18 conceded by the Veterinärdienst des Kantons BE, Sekretariat Tierversuche). (a) Upper panel: Average ^55Fe^2+-uptake (20 μM) by hDMT1-expressing and non-injected oocytes in the absence and the presence of the indicated compounds (10 μM). Data was normalized to ^55Fe^2+-uptake (pmol min^–1) in the absence of compounds represented as mean ± SD (16–29 oocytes). Lower panel: Net uptake of ^55Fe^2+ (20 μM) by hDMT1 in the absence and the presence of the indicated compounds (10 μM). For each batch of oocytes, uptake values were corrected for unspecific iron uptake in non-injected oocytes. Data were normalized to the mean iron uptake by hDMT1 WT (pmol min^–1) and represented as mean ± SD (14–34 oocytes). (b and c) Electrophysiology. […] For each trace, recorded currents were corrected for the background currents observed without substrate. (b) Representative traces recorded with hDMT1 injected oocytes (upper panel) and non-injected oocytes (lower panel). […] Statistical differences were assessed using T-test or Mann–Whitney U test (Fe^2+-uptake by hDMT1 WT vs. non-injected oocytes or vs. compound); p > 0.05 = ns; p < 0.001 = ***.
250 µM non-radioactive Fe2+ and 100 µM Ascorbic acid. Next, oocytes were solubilized with SDS 10% and 55Fe2+ content was determined by scintillation counting. To determine the total activity of the hDMT1-expressing oocytes, uptake of 55Fe2+ was determined also in the absence of any compound. […]
Electrophysiology methods. […] Then, the membrane voltage was held at -50 mV (Vh), and the current (nA) required to keep Vh constant was recorded along the experiments. These currents were measured with an OC-725 amplifier (Warner Instruments), low-pass filtered at 500 Hz, digitized at 5 kHz with a Digidata 1440 data acquisition system and captured using pClamp 10 software (Axon Instruments). […]

[1] = solubility noted at HPLC purity determination; type: physicochemical
Method: Table S3: Purity of the final compounds.
Compound Retention time Purity [%] HPLC
aMethod A: in 2.2 min from 100 % A to 10 0% D, then staying at 100 % D. Method B: in 7.5 min from 10 0% A to 100 % D,

[2] = isothermal titration calorimetry with Cd2+; type: binding; settings: pH 7.4, 25 °C, read-out: apparent dissociation constant KD
[3] = calcein quenching (competition) assay to detect Fe2+ chelation; settings: pH 5.5, 2 μM Fe2+, 1 μM calcein

Question: For `N=C(N)SCc1cccc2c1oc1c(CSC(=N)N)cccc12` [Compound 1, reference compound], which IC50 (hDMT1; currents at -70 mV, dose-response 0.01-10 μM, read-out: IC50 of inhibition of Fe2+ evoked currents) is on record?
Answer: The IC50 was 140 nM.

Question: For `Cc1nn(-c2ccccn2)c(O)c1C(=O)Nc1cccc(C(F)(F)F)c1` [Compound 3, reference compound], which “solubility in water and acetonitrile” value [1] is on record?
Answer: Its value is “not soluble in water and acetonitrile”.

Question: For `Cc1cc(=O)[nH]c(-n2nc3c(c2C)CCCC3)n1` [Compound 13], which Kd [2] is on record?
Answer: The Kd was 6.4 µM.

Question: What about the “effect on hDMT1-induced currents” value (hDMT1; compound up to 10 μM) of the same compound?
Answer: Its value is “no measurable effect on the recorded currents; also recorded: did not modulate hDMT1-induced currents”.

Question: And the “IC50 of inhibition of Fe2+ evoked currents” value (hDMT1; currents at -70 mV, dose-response 0.01-10 μM)?
Answer: Its value is “did not fit to the equation”.

Question: And the “iron chelation in calcein competition assay” value [3]?
Answer: Its value is “significant level of iron chelation”.

Reference: publication PMC7649969, “Pyrazolyl-pyrimidones inhibit the function of human solute carrier protein SLC11A2 (hDMT1) by metal chelation” (RSC Medicinal Chemistry, 2020)
